{"source": "paper PMC12311729", "about": "“Probing the Mechanism of L‑DOPA 2,3-Dioxygenase Using Synthetic Derivatives of 3,4-Dihydroxyhydrocinnamic Acid” (ACS Omega, 2025)", "key": {"[1]": {"assay": "Cyclic voltammetry (redox potentials on a GCE)", "type": "physicochemical", "from_the_text": "Reduction and oxidation potentials were experimentally performed by cyclic voltammetry (CV) at biological pH 7.4, as previously described. All samples were run on a CH Instruments 600E Potentiostat in a one-compartment cell equipped with a three-electrode system arrangement. The three-electrode system included a saturated calomel electrode as the reference electrode, a platinum wire as the auxiliary electrode, and a glassy carbon electrode (GCE, d = 2 mm) as the working electrode. The GCE was polished between each sample scan with an aqueous slurry of alumina powder on a microcloth pad. The electrodes were rinsed with distilled water prior to the next scan. All scans were conducted under nitrogen for oxygen displacement and at room temperature (rt, 25 ± 1 °C). All samples were prepared as close to the scan as possible (approximately 2 min each). Each sample (5 mL) contained 0.1 mM catecholic substrate and 1 μM DMSO in 0.1 M phosphate buffer at a pH of 7.4 or 6.0. […] The cyclic voltammograms for the compounds at both pH 6.0 and 7.4 are available in Figures S40–S51."}, "[2]": {"biological_target": "L-DOPA 2,3-dioxygenase from S. lincolnensis (LmbB1) (Streptomyces lincolnensis, UniProt Q54354)", "sequence (Q54354 entry or part of it)": "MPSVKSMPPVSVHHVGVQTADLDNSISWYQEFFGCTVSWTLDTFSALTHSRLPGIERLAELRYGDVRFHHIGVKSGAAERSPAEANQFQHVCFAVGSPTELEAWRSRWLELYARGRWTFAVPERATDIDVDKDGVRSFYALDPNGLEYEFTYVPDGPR", "assay": "UV-visible steady-state assay of L-DOPA 2,3-dioxygenase (LmbB1)", "type": "biochemical", "procedure": "(§1) Purified, reconstituted L-DOPA 2,3-dioxygenases were assessed for activity by monitoring the cleavage of catecholic substrates using UV–visible spectroscopy. 3,4-Dihydroxyhydrocinnamic acid (DHHCA, 3) was purchased from Sigma-Aldrich. 6-CyanoDHHCA (5) and 6-bromoDHHCA (4) were synthesized as described above.\n(§2) Molecular oxygen (AirGas) was bubbled directly into the reaction buffer through a glass-bonded silica gas diffuser (Bubblemac Industries, Inc.) or as a gas mixture blended with air (AirGas). Solutions were bubbled with oxygen for several minutes prior to use and for the duration of the experiment. To determine the K M for oxygen (i.e., K MO2), L-DOPA 2,3-dioxygenases (0.25–4.0 μM) were reacted with a saturating concentration of the catecholic substrate DHHCA/6-X-DHHCA derivatives (2–10× the K M sufficient to achieve k cat) and various oxygen concentrations (21–100% or 270–1300 μM at 22 °C). The concentration of oxygen was varied by changing the percentage of oxygen in the blend using a galvanic oxygen sensor and oxygen monitor (AirGas) and then bubbling solutions, as described above. Molecular oxygen percentages were converted to molar concentrations using a reference temperature of 22 °C. The reaction of L-DOPA 2,3-dioxygenases with DHHCA/6-X-DHHCA derivatives as a function of oxygen concentration was followed by the appearance of the steady-state cleavage product by using UV–visible spectroscopy.\n(§3) The extinction coefficients for steady-state cleavage products of DHHCA and synthetic 6-X-DHHCA derivatives were determined by reacting various concentrations of DHHCA/6-X-DHHCA derivatives at 22 °C with a 10-fold stoichiometric excess of enzyme (quantified by Fe^II–see Reconstitution) in 50 mM HEPES buffer with 154 mM NaCl at pH 7.5, bubbled with 100% oxygen to a final concentration of 780–910 μM, depending on the volume of oxygenated buffer that comprised the reaction (60–70%). Substrate solutions were prepared from authentic synthetic standards using an analytical balance, and reactions were run to completion as assessed by the appearance of the steady-state product. The λmax and extinction coefficients of DHHCA, 6-cyanoDHHCA, and 6-bromoDHHCA were determined herein as ε380 = 40 740 ± 820 M^–1cm^–1, ε385 = 33 256 ± 484 M^–1cm^–1, and ε380 = 35 282 ± 1190 M^–1cm^–1, respectively (Figure S52).\n(§4) Steady-state kinetic data were obtained through a UV–visible spectroscopic assay. Initial rates were obtained from the slopes of the linear regions of the progress curves and plotted versus substrate concentration to yield a hyperbola, which was analyzed using the Michaelis–Menten expression and nonlinear least-squares fitting (NLSF) with Origin 6.0 (Microcal). Two possible derivations of the Michaelis–Menten expression were used: 1) the traditional expression y = k cat × x/(K M + x), where y is Rate/E 0 or the rate of product formation (μM/min) divided by the starting enzyme concentration (μM), x is substrate concentration (μM) and k SP (also known as k cat × K M ^–1)–that is, the second-order rate constant of enzyme and substrate–is extracted from the fitted constants; or 2) the alternative derivation that extracts k SP and k cat directly from the fit: y = (k SP × x)/((1 + k SP × x)/k cat), and where y is Rate/E 0 or the rate of product formation (μM/min) divided by the starting enzyme concentration (μM), x is substrate concentration (μM), k SP is equivalent to k cat×K M ^–1, and K M is extracted from k cat/k cat×K M ^–1."}, "[3]": {"biological_target": "L-DOPA 2,3-dioxygenase from S. hygroscopicus jingganensis (ShjDDO) (Streptomyces hygroscopicus, UniProt H2JL11)", "sequence (H2JL11 1-162)": "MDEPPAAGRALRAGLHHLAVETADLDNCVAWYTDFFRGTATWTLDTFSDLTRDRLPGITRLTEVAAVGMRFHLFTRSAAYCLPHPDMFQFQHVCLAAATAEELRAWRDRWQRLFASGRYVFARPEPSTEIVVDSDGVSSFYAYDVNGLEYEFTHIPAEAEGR", "assay": "UV-visible steady-state assay of L-DOPA 2,3-dioxygenase (ShjDDO)", "type": "biochemical", "procedure": "as §1, §2, §3, §4"}, "[4]": {"system": "S. hygroscopicus jingganensis L-DOPA 2,3-dioxygenase (ShjDDO)", "assay": "Presteady state stopped-flow kinetic assay, modeled with KinTek Explorer", "type": "biochemical, Streptomyces hygroscopicus jingganensis", "conditions": "ratio k6/k7; presteady state with ShjDDO", "procedure": "Reaction temperature was controlled at 14 ± 0.5 °C by a circulating water bath. […] Stock solutions of 6-[…] prepared in DMSO. […] ShjDDO was reconstituted with iron(II) sulfate heptahydrate, gel filtered into the reaction buffer, and loaded into the drive syringe. […] Fifteen to twenty progress curves from the same experimental conditions were averaged in the KinTek Stopped Flow software and exported to KinTek Explorer for modeling. Between experiments, the instrument drive syringes were cleaned with acid, base, and water; soaked in 1% Hellmanex detergent for 30 min at ∼30-35 °C; thoroughly rinsed with water; and stored in 10% ethanol. […] state kinetic data were analyzed by fitting to simulated mechanisms using the KinTek Explorer software (KinTek Corp, Austin, TX). KinTek Explorer simulates experimental results by using direct numerical integration of rate equations for the kinetic model and yields estimates for the rate constants of microscopic steps. […] state experiments were modeled using KinTek Explorer according to a defined reaction pathway, as described in the Results and Discussion and shown in Scheme . The extinction coefficients of the DHHCA and 6-[…] semialdehyde products were independently determined as described above and fixed during fitting. Some rates were fixed as either “fast” (i.e., 1 × 10^9) or very slow (1 × 10^-12, i.e., ∼0) as described in the text. The equilibrium represented by k 1 and k -1 was fixed at the ratio of substrate charge states as predicted by the experimentally determined pK a values (Table ) and the Henderson-Hasselbach equation. Extinction coefficients were fitted and/or fixed during fitting as described in the text and interpreted using the observable expression: […], where a is the extinction coefficient applied to ESQ, b is the independently experimentally determined extinction coefficient on P, and c is a y-axis offset. […] ESO2 is the ternary complex of enzyme, substrate, and oxygen. ESQ represents the putative semiquinone intermediate, a UV-absorbing species, and ESQ_X is the species formed from the nonproductive quenching of the semiquinone. […] EP is the enzyme-product complex, and P is the free semialdehyde product. P can then degrade nonenzymatically to the spectroscopically silent P_X. Errors on each fit were calculated from 2[…] at 0.83 Chi^2. The KinTek Explorer program FitSpace explores the uniqueness of a particular fit to the data by measuring the dependence of the sum square error (SSE) on each pair of parameters, while allowing all other parameters to vary in seeking the best fit. […]"}, "[5]": {"assay": "Determination of pKa values by spectrophotometric titration", "protocol": "A buffer system utilizing five different buffers was prepared to cover the pH range of 3.0 to 12.50. A Thermo Scientific Orion Star A211 pH meter was used to measure and determine the pH of each buffer. The pH meter was calibrated using three- and four-point calibration with pH values of 4.00, 7.01, and 10.01 and 4.00, 7.01, 10.01, and 12.00, respectively.\nThe buffer systems were prepared as previously described and included: NaOAc/HOAc buffers (C = 0.1 M; I = 0.1 M) were used to cover the pH range of 3.0 to 5.50. KH2PO4/K2HPO4 buffers (C = 0.05 M; I = 0.1 M) were used to cover the pH range of 6.00 to 8.00. CHES buffers (C = 0.05 M; I = 0.1 M) were used to cover the pH range of 8.50 to 10.50. Na2HPO4/Na3PO4 buffers (C = 0.05 M; I = 0.1 M) were used to cover the pH range of 11.00 to 12.00. KCl buffers (C = 0.1 M; I = 0.1 M) were used to cover the pH range of 12.00 to 12.50.\nThe absorbance spectra of the compounds were determined at each pH as previously described. Briefly, a stock solution was prepared for each compound by weighing 2 mg of the compound using a high-precision analytical balance. Each compound was then dissolved in DMSO at a concentration of 10 mM. A UV-transparent 96-well microplate (Corning clear acrylic 96-well UV plate with a UV-transparent flat bottom) was loaded with 196 μL of buffer solution and 4 μL of the catechol stock in each well to get a final concentration of 200 μM. DMSO (4 μL) was added to 196 μL of the appropriate buffer to produce a blank solution for each buffer.\nThe 96-well plate was loaded into the microplate reader and incubated at 30 °C and shaken for 10 min before the reading. Absorbance readings were completed by using a Synergy HTX 15032517 microplate reader. Each well was read at wavelengths from 210 to 600 nm with 2-nm increments for each scan over a duration of 60 min.\nThe data were analyzed as previously described. Raw UV-spectra scans were exported to the Excel program. They were first processed by subtracting the reading of the blank solutions from the reading of each compound at the corresponding wavelengths. […] Finally, the spectral difference between the pH 3.0 buffer and the spectra at all other pH values was plotted. Additionally, the spectral difference between the pH 4.0 buffer and the spectra at all other higher pH values was plotted. The wavelengths for the maximum positive and negative absorbance were determined by using the graphs of the spectral difference plots, both for the pH 3.0 and pH 4.0 spectral difference plots. The absolute maximum positive and total absorbance differences at these chosen wavelengths were plotted against the pH of each buffer. The data were imported into the Origin 6.0 program, and the pK a values were determined with a nonlinear regression using eq : 1 Absorbancetotal=εHA−εA−[10^(pH−pKa)]/1+10^(pH−pKa)×[St]\nεHA is the extinction coefficients of the acid form of the compound, and εA ^– is the extinction coefficient of the base form of the compound (i.e., the minima and maxima of the absorbance difference curve, respectively), and [S t] is the total compound concentration."}, "[6]": {"system": "N#Cc1cc(O)c(O)cc1CCC(=O)O", "assay": "UV-visible steady-state assay of L-DOPA 2,3-dioxygenase (ShjDDO)", "type": "biochemical, Streptomyces hygroscopicus jingganensis", "conditions": "other: S. hygroscopicus jingganensis enzyme", "procedure": "as §1, §2, §3, §4"}, "O=C(O)CCc1cc(O)c(O)cc1Br": {"system": "O=C(O)CCc1cc(O)c(O)cc1Br", "assay": "UV-visible steady-state assay of L-DOPA 2,3-dioxygenase (ShjDDO)", "type": "biochemical, Streptomyces hygroscopicus jingganensis", "conditions": "other: S. hygroscopicus jingganensis enzyme", "procedure": "as §1, §2, §3, §4"}, "O=C(O)CCc1ccc(O)c(O)c1": {"system": "O=C(O)CCc1ccc(O)c(O)c1", "assay": "UV-visible steady-state assay of L-DOPA 2,3-dioxygenase (ShjDDO)", "type": "biochemical, Streptomyces hygroscopicus jingganensis", "conditions": "other: S. hygroscopicus jingganensis enzyme", "procedure": "as §1, §2, §3, §4"}, "[7]": {"conditions": "percentage of the value for L-DOPA"}, "[8]": {"conditions": "saturating catecholic substrate, 22 °C, pH 7.5"}}, "data": [{"molecule": "O=C(O)CCc1ccc(O)c(O)c1", "note": "[DHHCA (3), 3,4-dihydroxyhydrocinnamic acid]", "values": [{"measurement": "(E p)a Oxidation", "setting": "[1]; pH 6.0, GCE (d = 2 mm)", "result": 388, "unit": "mV"}, {"measurement": "E1/2", "setting": "[1]; pH 6.0, GCE (d = 2 mm)", "result": 198.5, "unit": "mV"}, {"measurement": "Ipa/Ipc", "setting": "[1]; pH 6.0, GCE (d = 2 mm)", "result": 2.54}, {"measurement": "ΔE p", "setting": "[1]; pH 6.0, GCE (d = 2 mm)", "result": 379, "unit": "mV"}, {"measurement": "(E p)a Oxidation", "setting": "[1]; pH 7.4, GCE (d = 2 mm)", "result": 333, "unit": "mV"}, {"measurement": "(E p)c Reduction", "setting": "[1]; pH 7.4, GCE (d = 2 mm)", "result": "–95 mV"}, {"measurement": "E1/2", "setting": "[1]; pH 7.4, GCE (d = 2 mm)", "result": 119, "unit": "mV"}, {"measurement": "Ipa/Ipc", "setting": "[1]; pH 7.4, GCE (d = 2 mm)", "result": 1.30}, {"measurement": "ΔE p", "setting": "[1]; pH 7.4, GCE (d = 2 mm)", "result": 428, "unit": "mV"}, {"measurement": "E1/2 (mV) at pH 7.4 relative to L-DOPA x 100", "setting": "[1]; [7]", "result": 59, "unit": "%"}, {"measurement": "activity / turnover as substrate", "setting": "[2]; LmbB1, aerobic reaction observed by UV–visible spectroscopy", "result": "measurable activity"}, {"measurement": "kcat at 22 °C and 100% O2 saturation", "setting": "[2]; S. lincolnensis enzyme, pH 7.5", "result": "2.1 ± 0.2", "unit": "sec^–1"}, {"measurement": "kSP,O2 × 10^2 at 22 °C", "setting": "[2]; S. lincolnensis enzyme, values are kSP × 10^2", "result": "19.2 ± 3.2", "unit": "μM^–1 min^–1"}, {"measurement": "kSP catechol × 10^2 at 22 °C", "setting": "[2]; S. lincolnensis enzyme, values are kSP × 10^2, kSP = kcat/KM", "result": "13.4 ± 2.5", "unit": "μM^–1 min^–1"}, {"measurement": "kSP, O2 (μM^-1 min^-1) at pH 7.5 relative to L-DOPA x 100 for LmbB1", "setting": "[2]; [7]", "result": 23, "unit": "%"}, {"measurement": "kcat at 22 °C and 100% O2 saturation", "setting": "[3]; S. hygroscopicus jingganensis enzyme, pH 7.5", "result": "6.7 × 10^–1 ± 5.0 × 10 ^–2 sec^–1"}, {"measurement": "kSP,O2 × 10^2 at 22 °C", "setting": "[3]; S. hygroscopicus jingganensis enzyme, values are kSP × 10^2", "result": "17.7 ± 2.6", "unit": "μM^–1 min^–1"}, {"measurement": "kSP catechol × 10^2 at 22 °C", "setting": "[3]; S. hygroscopicus jingganensis enzyme, values are kSP × 10^2, kSP = kcat/KM", "result": "9.5 ± 2.3", "unit": "μM^–1 min^–1"}, {"measurement": "activity / turnover as substrate", "setting": "[3]; ShjDDO, aerobic reaction observed by UV–visible spectroscopy", "result": "measurable activity"}, {"measurement": "kSP, O2 (μM^-1 min^-1) at pH 7.5 relative to L-DOPA x 100 for ShjDDO", "setting": "[3]; [7]", "result": 13, "unit": "%"}, {"measurement": "productive formation of EI (k 6) faster than the rate of inactivation (k 7)", "setting": "[4]", "result": "~40", "unit": "times"}, {"measurement": "pK a value", "setting": "[5]; first catecholic deprotonation, determined spectroscopically from pH 3 to 12.5", "result": "8.87 ± 0.12"}, {"measurement": "Catecholic pKa value relative to L-DOPA x 100", "setting": "[5]; [7]", "result": 101, "unit": "%"}]}, {"molecule": "L-DOPA 2,3-dioxygenase from S. hygroscopicus jingganensis (ShjDDO) (Streptomyces hygroscopicus subsp. jinggangensis 5008)", "values": [{"measurement": "Km", "setting": "[6]; pH 7.5, 22 °C", "result": "228 ± 53", "unit": "µM"}, {"measurement": "Km", "setting": "[6]; [8]", "result": "1019 ± 236", "unit": "µM"}, {"measurement": "Km", "setting": "O=C(O)CCc1cc(O)c(O)cc1Br; pH 7.5, 22 °C", "result": "926 ± 169", "unit": "µM"}, {"measurement": "Km", "setting": "O=C(O)CCc1cc(O)c(O)cc1Br; [8]", "result": "759 ± 66", "unit": "µM"}, {"measurement": "Km", "setting": "O=C(O)CCc1ccc(O)c(O)c1; pH 7.5, 22 °C", "result": "422 ± 94", "unit": "µM"}, {"measurement": "Km", "setting": "O=C(O)CCc1ccc(O)c(O)c1; [8]", "result": "1059 ± 246", "unit": "µM"}]}]}
